According to ChEMBL document CHEMBL3885881, “DrugMatrix”:

Species: Rattus norvegicus
Assay: DrugMatrix - Regimen: Daily Repeat
Assay type: toxicity, organism-based, Sprague-Dawley
Set-up: regimen Daily Repeat, gender Male, age 6-8 weeks
Details: in vivo, iv, 6 mg/kg, dose level High, vehicle 100 % SALINE
[1] = 72 h, tissue Plasma, time 3 day
[2] = 120 h, tissue Blood, time 5 day
[3] = 120 h, tissue Plasma, time 5 day

For SODIUM NITROPRUSSIDE, the “ABSOLUTE BASOPHIL” value (72 h, tissue Blood, time 3 day) was 0 CELLS/uL, the “ABSOLUTE EOSINOPHIL” value (72 h, tissue Blood, time 3 day) was 0 CELLS/uL and the “ABSOLUTE LYMPHOCYTE” value (72 h, tissue Blood, time 3 day) was 16076 CELLS/uL. For the same substance, the “ABSOLUTE MONOCYTE” value (72 h, tissue Blood, time 3 day) was 195 CELLS/uL, the “ABSOLUTE SEGMENTED NEUTROPHIL” value (72 h, tissue Blood, time 3 day) was 1029 CELLS/uL and the BASOPHIL (72 h, tissue Blood, time 3 day) was 0%. For the same substance, the EOSINOPHIL (72 h, tissue Blood, time 3 day) was 0%, the “ERYTHROCYTE COUNT” value (72 h, tissue Blood, time 3 day) was 6.07 x10E6/uL and the HEMATOCRIT (72 h, tissue Blood, time 3 day) was 38.07%. The HEMOGLOBIN (72 h, tissue Blood, time 3 day) was 15 G/DL, the “LEUKOCYTE COUNT” value (72 h, tissue Blood, time 3 day) was 17.3 x10E3/uL and the LYMPHOCYTE (72 h, tissue Blood, time 3 day) was 92.67%. For the same substance, the “MEAN CORPUSCULAR HEMOGLOBIN” value (72 h, tissue Blood, time 3 day) was 24.73 pg, the MONOCYTE (72 h, tissue Blood, time 3 day) was 1% and the NEUTROPHIL (72 h, tissue Blood, time 3 day) was 6.33%. The “NUCLEATED RED BLOOD CELLS” value (72 h, tissue Blood, time 3 day) was 0 /100WBC, the “PLATELET COUNT” value (72 h, tissue Blood, time 3 day) was 1432 x10E3/uL and the “ALANINE AMINOTRANSFERASE” value [1] was 34.67 u/L. For the same substance, the ALBUMIN [1] was 4.5 G/DL, the “ALKALINE PHOSPHATASE” value [1] was 308.33 u/L and the “ASPARTATE AMINOTRANSFERASE” value [1] was 90.67 u/L. For the same substance, the “BLOOD UREA NITROGEN” value [1] was 21.33 mg/dL, the “CARBON DIOXIDE” value [1] was 23.67 mmol/L and the CHOLESTEROL [1] was 68 mg/dL. For the same substance, the “CREATINE PHOSPHOKINASE” value [1] was 251 u/L, the CREATININE [1] was 0.17 mg/dL and the GLUCOSE [1] was 173 mg/dL. The “LACTATE DEHYDROGENASE” value [1] was 383.67 u/L, the LIPASE [1] was 8.33 u/L and the PHOSPHORUS [1] was 13.27 mg/dL. For the same substance, the POTASSIUM [1] was 6.61 MEQ/L, the “TOTAL BILIRUBIN” value [1] was 0.1 mg/dL and the “TOTAL PROTEIN” value [1] was 6.4 G/DL. For the same substance, the “URIC ACID” value [1] was 1.87 mg/dL, the “ABSOLUTE BASOPHIL” value [2] was 0 CELLS/uL and the “ABSOLUTE EOSINOPHIL” value [2] was 139 CELLS/uL. For the same substance, the “ABSOLUTE LYMPHOCYTE” value [2] was 12315 CELLS/uL, the “ABSOLUTE MONOCYTE” value [2] was 50.33 CELLS/uL and the “ABSOLUTE SEGMENTED NEUTROPHIL” value [2] was 1129 CELLS/uL. For the same substance, the BASOPHIL [2] was 0%, the EOSINOPHIL [2] was 1% and the “ERYTHROCYTE COUNT” value [2] was 5.93 x10E6/uL. The HEMATOCRIT [2] was 37.1%, the HEMOGLOBIN [2] was 14.97 G/DL and the “LEUKOCYTE COUNT” value [2] was 13.63 x10E3/uL. For the same substance, the LYMPHOCYTE [2] was 90.33%, the “MEAN CORPUSCULAR HEMOGLOBIN” value [2] was 25.2 pg and the “MEAN CORPUSCULAR HEMOGLOBIN CONCENTRATION” value [2] was 40.33 G/DL. For the same substance, the “MEAN CORPUSCULAR VOLUME” value [2] was 62.57 fL, the MONOCYTE [2] was 0.33% and the NEUTROPHIL [2] was 8.33%. For the same substance, the “NUCLEATED RED BLOOD CELLS” value [2] was 0.33 /100WBC, the “PLATELET COUNT” value [2] was 1277.67 x10E3/uL and the “ALANINE AMINOTRANSFERASE” value [3] was 45.67 u/L. The ALBUMIN [3] was 4.5 G/DL, the “ALKALINE PHOSPHATASE” value [3] was 128.33 u/L and the “ASPARTATE AMINOTRANSFERASE” value [3] was 86 u/L. For the same substance, the “CARBON DIOXIDE” value [3] was 18 mmol/L, the CHOLESTEROL [3] was 61.67 mg/dL and the “CREATINE PHOSPHOKINASE” value [3] was 409.33 u/L. For the same substance, the CREATININE [3] was 0.23 mg/dL, the “LACTATE DEHYDROGENASE” value [3] was 135.67 u/L and the LIPASE [3] was 8.33 u/L. For the same substance, the PHOSPHORUS [3] was 10.9 mg/dL, the POTASSIUM [3] was 16.23 MEQ/L and the “TOTAL BILIRUBIN” value [3] was 0.13 mg/dL. For the same substance, the “TOTAL PROTEIN” value [3] was 6.07 G/DL.
